In patent US11352604B2, “Method of making cardiomyocytes from human pluripotent cells” (Wisconsin Alumni Research Foundation, priority 2016, dated 2022):

Columns and labels:
Assay type in all cases: cell-based, human
[1] = test system: DBT, ATP5F1, SLC25A4; assay: Quantitative immunostaining of upregulated metabolic proteins; conditions: hPSC-CMs from pI:C-treated vs untreated progenitors
Method: For internal antigens, cells were rinsed of media two times in PBS, fixed for 10 minutes in 4% paraformaldehyde at RT, rinsed three times again in PBS, then blocked for 1 hour at room temperature (RT) in Licor blocking buffer containing 0.2% Triton x-100 (Sigma). Blocking solution was aspirated and antibodies added overnight at 4° C. in fresh blocking/permeabilization solution. Antibodies used were mouse cardiac troponin T (Thermo Fisher Scientific, 1:200), rabbit WT1 (Abcam 1:200), mouse smooth muscle myosin heavy chain (Abcam, 1:200), goat Jag1 c-terminal domain (1:200 Abcam), MMP1 (Abcam, 1:200), mouse cardiac actin (Sigma, 1:200), rabbit SLC25A4 (Proteintech, 1:100), rabbit DBT (Proteintech, 1:100), rabbit ATP5F1 (Proteintech, 1:100), rabbit Irx4 (Abcam, 1:200), goat nkx2.5 (Santa Cruz, 1:50), mouse connexin 40 (Thermo Fisher Scientific, 1:200), and fibroblast-specific protein (Abcam, 1:100). After primary and secondary antibodies, cells were rinsed two times in PBS with 0.2% triton x-100. Donkey secondaries conjugated to Alexa Fluor dyes were used at 1:1000 and incubated at RT for 1 h. DAPI or Hoechst was used to visualize nuclei. Cells were imaged either on an EVOS system in wells (Thermo Fisher Scientific) or a Leica confocal microscope in cover glass or ibidi 8-well microslides. Image J was used to quantify cell area by outer boundaries of cTnT staining.

[2] = test system: cTnT isoforms; assay: Top-down mass spectrometry of cTnT isoforms (adult to fetal AUC ratio)
Method: Freshly isolated CMs from the H9-cTnT-GFP (FIG. 1) or 19-9-11 (FIG. 2) hPSC cell lines were washed with Ca^2+-free DPBS and centrifuged at 1,100 g for 5 minutes (min) and the wash solvent was removed. The cells were first homogenized in 50 μl HEPES solution (25 mM HEPES, pH 7.4, 2.5 mM EDTA, 100 mM NaF, 1 mM DTT, 10 mM L-methionine, 1 mM PMSF, 1 mM Na3VO4, protease inhibitor (Abcam) and phosphatase inhibitors). The homogenates were centrifuged at 17,000 g for 20 min and the HEPES extract containing predominately cytosolic proteins was collected. The remaining pellets were homogenized in 40 μl trifluoroacetic acid (TFA) solution (1% TFA, 5 mM tris(2-carboxyethyl)phosphine, 5 mM L-methionine) and centrifuged at 17,000 g for 20 min. The TFA extract containing predominantly the sarcomeric proteins was collected. Bradford protein assays were performed to determine the protein concentration. The sarcomeric protein-enriched extracts were diluted to 100 ng/μl for Liquid chromatography (LC)-MS analysis.
500 ng of each sarcomeric protein-enriched extract was injected to a home-packed reverse phase chromatography (RPC) column (PLRP-S, 10 μm particle size, 1000 A pore size, 500 μm inner diameter, 25 cm long), and the proteins were separated with a gradient of 5-95% mobile phase B (0.1% formic acid in 50:50 acetonitrile:ethanol) (mobile phase A: 0.1% formic acid in H2O) at a constant flowrate of 12 μl/min. The eluting proteins were analyzed by a high-resolution quadrupole-time of flight (q-TOF) mass spectrometer (Impact II, Bruker Daltonics) via electrospray ionization. The mass spectra were collected at a scan rate of 0.5 Hz for all samples being analyzed. Analyses of top-down mass spectra were performed using the vender-specific software DataAnalysis 3.2 (Bruker Daltonics).
Quantification of the sarcomeric protein isoforms was performed as previously described. […] The area under curve (AUC) of the EIC of a specific protein isoform represents the abundance of the selected protein isoform. […] Relative quantification of protein isoform expression was measured by the ratio of the AUCs.

[3] = test system: Jag1; assay: Flow cytometry of day 5 progenitors for Jag1 and Notch2
Source text: Flow cytometry for live cell surface antigens was done on dissociated cells of the 19-9-11 iPS cell line with Thy1 biotin (1:200 Biolegend, with Life Technologies streptavidin direct conjugate at 1:1000) and SIRPα (1:200, Biolegend) in K20 and then analyzed at the UWCCC Flow Cytometry Laboratory using a BD LSRII Fortessa flow cytometer. For progenitor flow experiments, cells were dissociated as above for progenitor dissociation, centrifuged at 200×g, subjected to FACS to concentrate cells, and resuspended in 100 μL, of K2 media+rockI/Jag1 PE, BD Biosciences (1:20); Notch2 APC R&D Biosystems (1:10) and analyzed on either a BD FACSariaII cell sorter or BD LSRII Fortessa flow cytometer.

[4] = test system: hPSC-CMs; assay: Transmission electron microscopy of sarcomeres; conditions: day 30 hPSC-CMs from pI:C-treated progenitors
Source text: Differentiated H9-cTnT-GFP line hPSC-CMs at day 30 were washed twice with sodium phosphate buffer and fixed and maintained in sodium phosphate buffer with 4% paraformaldehyde (PFA) until pelleting and processing for TEM as previously described (Raval et al., 2015).

[5] = test system: day 5 cardiac progenitors; assay: Methylcellulose colony-forming assay; conditions: 1% methylcellulose, four days, size >35 μm
Method: Day-5 cardiac progenitors from the 19-9-11 cell line were dissociated as above, but then passed 10 times through a syringe with 18 gauge needle and filtered twice through a 45 μm flow cytometry cell strainer. The cells were then counted and 100,000 cells were then mixed with 2 mL of K20 medium plus 10 μM Y-27632 ROCK-inhibitor (Tocris) containing 1% ES-Cult methylcellulose (Stemcell Technologies) and grown in one 6-well of a corning Ultra Low Attachment plate. ImageJ was used to measure colony diameter four days later and single cells observed the first day and after had diameters less than 35 μm.

[6] = test system: hPSC-CMs; assay: Seahorse oxygen consumption rate; conditions: cardiomyocytes from treated vs untreated progenitors
Method: After hPSC-CM dissociation of day 40-70 lactate-purified hPSC-CMs from the H9 cTnT-GFP reporter cell line, 25,000 cells per well were replated into Synthemax®-coated wells of Seahorse XF96 V3 PS cell culture plates (Agilent). Plates were analyzed for basal and maximal oxygen consumption rate with a Seahorse XF cell mito stress kit according to the manufacturer's instructions (Agilent) using concentrations of 1 μM oligomycin, 2 μM FCCP, and 0.5 μM Rotenone/antimycin A. Purity was determined by dissociating seahorse wells after analysis and doing live cell flow cytometry for cTnT-GFP. To directly compare data between plate runs/biological replicates, the fold change between hPSC-CMs from pI:C− and pI:C+ progenitors was computed for each sample's maximal and basal oxygen consumption rate normalized to total protein estimated after cell lysis in EBC buffer. Log2 of the fold changes was tested for significance in a one-sample t test against a null hypothesis of 0.

With polyinosinic-polycytidylic acid [pI:C] the “expression of DBT, ATP5F1 and SLC25A4” value [1] was “increased expression”, the “ratio of adult to fetal cTnT isoforms” value ([2]; day 30 cardiomyocytes) was “increased the ratio of adult to fetal isoforms” and the “adult to fetal cTnT isoform ratio and relative difference treated vs untreated” value ([2]; prolonged culture to day 122) was “increased dramatically”. The “number of Jag1 positive cells and median fluorescence signal-to-noise” value [3] was “increased”, the sarcomere ultrastructure [4] was “longer, more regular and compact sarcomeres that contained I-bands” and the colony formation [5] was “abundant multi-cellular colonies”. The “basal oxygen consumption rate” value [6] was “approximately 2 fold” and the “maximal oxygen consumption rate” value [6] was “approximately 2 fold”.
